Source: US12655116B2, “Substituted isophthalic acid diamides” (Bayer Aktiengesellschaft, priority 2020, dated 2026)

Experiments:
[1] = system: AVEFA; test: Post-emergence herbicidal action against AVEFA; format: in vivo, Avena fatua; details: Avena fatua, 504 h, 20 g/ha, visual assessment about 3 weeks after treatment, 100% = plants have died, 0% = like control plants
Procedure, shortened: (§1)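 Herbicidal effect was scored visually in percent after about 3 weeks in the greenhouse. Plants had been raised in sandy loam and treated post-emergence at the one-leaf stage with formulated compound at 600 to 800 l/ha water plus 0.2% wetting agent.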

[2] = system: MATIN; test: Post-emergence herbicidal action against MATIN; format: in vivo, Matricaria inodora; details: Tripleurospermum inodorum, 504 h, dosage 20 g/ha
Procedure, shortened: as §1

[3] = system: VERPE; test: Pre-emergence herbicidal action against VERPE; format: in vivo, Veronica persica; details: Veronica persica, 504 h
Procedure, shortened: (§2)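 Herbicidal effect was assessed 3 weeks after treatment by visual comparison with untreated controls, 100% denoting dead plants. Aqueous WP or EC preparations had been applied at 600 to 800 l/ha with 0.2% wetting agent to the soil covering freshly sown seeds.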

[4] = system: MATIN; test: Pre-emergence herbicidal action against MATIN; format: in vivo, Matricaria inodora; details: Tripleurospermum inodorum, 504 h
Procedure, shortened: as §2

[5] = system: PHBPU; test: Post-emergence herbicidal action against PHBPU; format: in vivo, Pharbitis purpurea; details: Ipomoea purpurea, 504 h
Procedure, shortened: as §1

[6] = system: AMARE; test: Pre-emergence herbicidal action against AMARE; format: in vivo, Amaranthus retroflexus; details: Amaranthus retroflexus, 504 h, scored visually after 3 weeks vs untreated controls, 100% = plants have died, 0% = like control plants
Procedure, shortened: as §2

[7] = system: ECHCG; test: Pre-emergence herbicidal action against ECHCG; format: in vivo, Echinochloa crus-galli; details: Echinochloa crus-galli, 504 h, 80 g/ha
Procedure, shortened: as §2

[8] = system: LOLRI; test: Post-emergence herbicidal action against LOLRI; format: in vivo, Lolium rigidum; details: Lolium rigidum, 504 h, dosage 20 g/ha
Protocol: Seeds of monocotyledonous and dicotyledonous weed and crop plants are laid out in sandy loam soil in wood-fiber pots, covered with soil and cultivated in a greenhouse under good growth conditions. 2 to 3 weeks after sowing, the test plants are treated at the one-leaf stage. The compounds of the invention, formulated in the form of wettable powders (WP) or as emulsion concentrates (EC), are then sprayed onto the green parts of the plants in the form of an aqueous suspension or emulsion at a water application rate equivalent to 600 to 800 l/ha, with addition of 0.2% wetting agent. After the test plants have been left to stand in the greenhouse under optimal growth conditions for about 3 weeks, the action of the preparations is assessed visually in comparison to untreated controls (herbicidal action in percent (%): 100% activity=the plants have died, 0% activity=like control plants). […] The tables below illustrate, in an illustrative manner, the post-emergence herbicidal action of the compounds of the invention, the herbicidal activity being stated in percent.

[9] = system: PHBPU; test: Pre-emergence herbicidal action against PHBPU; format: in vivo, Pharbitis purpurea; details: Ipomoea purpurea, 504 h, dosage 80 g/ha
Procedure, shortened: as §2

[10] = system: DIGSA; test: Post-emergence herbicidal action against DIGSA; format: in vivo, Digitaria sanguinalis; details: Digitaria sanguinalis, 504 h
Procedure, shortened: as §1

[11] = system: ABUTH; test: Pre-emergence herbicidal action against ABUTH; format: in vivo, Abutilon theophrasti; details: Abutilon theophrasti, 504 h
Procedure, shortened: as §2

[12] = system: VERPE; test: Post-emergence herbicidal action against VERPE; format: in vivo, Veronica persica; details: Veronica persica, 504 h
Procedure, shortened: as §1

[13] = system: LOLRI; test: Pre-emergence herbicidal action against LOLRI; format: in vivo, Lolium rigidum; details: Lolium rigidum, 504 h, 80 g/ha
Procedure, shortened: as §2

[14] = system: AMARE; test: Post-emergence herbicidal action against AMARE; format: in vivo, Amaranthus retroflexus; details: Amaranthus retroflexus, 504 h, 20 g/ha, visual assessment about 3 weeks after treatment, 100% = plants have died, 0% = like control plants
Procedure, shortened: as §1

[15] = system: ECHCG; test: Post-emergence herbicidal action against ECHCG; format: in vivo, Echinochloa crus-galli; details: Echinochloa crus-galli, 504 h, dosage 20 g/ha
Procedure, shortened: as §1

[16] = system: ABUTH; test: Post-emergence herbicidal action against ABUTH; format: in vivo, Abutilon theophrasti; details: Abutilon theophrasti, 504 h, visual assessment about 3 weeks after treatment vs untreated controls
Procedure, shortened: as §1

[17] = system: SETVI; test: Pre-emergence herbicidal action against SETVI; format: in vivo, Setaria viridis; details: Setaria viridis, 504 h, dosage 80 g/ha
Procedure, shortened: as §2

[18] = system: ALOMY; test: Post-emergence herbicidal action against ALOMY; format: in vivo, Alopecurus myosuroides; details: Alopecurus myosuroides, 504 h, visual assessment about 3 weeks after treatment vs untreated controls
Procedure, shortened: as §1

[19] = system: ALOMY; test: Pre-emergence herbicidal action against ALOMY; format: in vivo, Alopecurus myosuroides; details: Alopecurus myosuroides, 504 h; 80 g/ha, pre-emergence, scored visually after 3 weeks vs untreated controls (100% = plants have died, 0% = like control plants)
Procedure, shortened: as §2

[20] = system: VIOTR; test: Pre-emergence herbicidal action against VIOTR; format: in vivo, Viola tricolor; details: Viola tricolor, 504 h
Procedure, shortened: as §2

[21] = system: VIOTR; test: Post-emergence herbicidal action against VIOTR; format: in vivo, Viola tricolor; details: Viola tricolor, 504 h, 20 g/ha
Procedure, shortened: as §1

[22] = system: DIGSA; test: Pre-emergence herbicidal action against DIGSA; format: in vivo, Digitaria sanguinalis; details: Digitaria sanguinalis, 504 h
Procedure, shortened: as §2

[23] = system: SETVI; test: Post-emergence herbicidal action against SETVI; format: in vivo, Setaria viridis; details: Setaria viridis, 504 h, dosage 20 g/ha
Procedure, shortened: as §1

[24] = system: POLCO; test: Pre-emergence herbicidal action against POLCO; format: in vivo, Polygonum convolvulus; details: Fallopia convolvulus, 504 h, dosage 80 g/ha
Procedure, shortened: as §2

CNC(=O)c1c(C(F)(F)C(F)(F)F)ccc(C(=O)Nc2nnnn2C)c1Cl [Example 1-165]
pest or weed control at 20 g/ha [1]: 90%
pest or weed control at 20 g/ha [2]: 80%
pest or weed control at 20 g/ha ([3]; dosage 20 g/ha): 80%
pest or weed control at 80 g/ha ([3]; dosage 80 g/ha): 100%
pest or weed control at 20 g/ha ([4]; dosage 20 g/ha): 100%
pest or weed control at 80 g/ha ([4]; dosage 80 g/ha): 100%
pest or weed control at 5 g/ha ([5]; dosage 5 g/ha): 90%
pest or weed control at 20 g/ha ([5]; dosage 20 g/ha): 90%
pest or weed control at 20 g/ha ([6]; 20 g/ha): 100%
pest or weed control at 80 g/ha ([6]; 80 g/ha): 100%
pest or weed control at 80 g/ha [7]: 100%
pest or weed control at 20 g/ha [8]: 80%
pest or weed control at 80 g/ha [9]: 100%
pest or weed control at 5 g/ha ([10]; 5 g/ha): 90%
pest or weed control at 20 g/ha ([10]; 20 g/ha): 90%
pest or weed control at 80 g/ha ([11]; 80 g/ha, scored visually after 3 weeks vs untreated controls (100% = plants have died, 0% = like control plants)): 100%
pest or weed control at 20 g/ha ([11]; dosage 20 g/ha, scored visually after 3 weeks vs untreated controls, 100% = plants have died, 0% = like control plants, read-out: Pre-emergence action against ABUTH (herbicidal activity in percent)): 90%
pest or weed control at 5 g/ha ([12]; 5 g/ha): 80%
pest or weed control at 20 g/ha ([12]; 20 g/ha): 80%
pest or weed control at 80 g/ha [13]: 80%
pest or weed control at 20 g/ha [14]: 90%
pest or weed control at 20 g/ha [15]: 90%
pest or weed control at 5 g/ha ([16]; dosage 5 g/ha): 90%
pest or weed control at 20 g/ha ([16]; dosage 20 g/ha): 90%
pest or weed control at 80 g/ha [17]: 100%
pest or weed control at 5 g/ha ([18]; dosage 5 g/ha): 90%
pest or weed control at 20 g/ha ([18]; dosage 20 g/ha): 100%
pest or weed control at 80 g/ha [19]: 100%
pest or weed control at 20 g/ha ([20]; dosage 20 g/ha): 90%
pest or weed control at 80 g/ha ([20]; dosage 80 g/ha): 100%
pest or weed control at 20 g/ha [21]: 80%
pest or weed control at 20 g/ha ([22]; dosage 20 g/ha): 100%
pest or weed control at 80 g/ha ([22]; dosage 80 g/ha): 100%
pest or weed control at 20 g/ha [23]: 90%
pest or weed control at 80 g/ha [24]: 90%
